Assays:
[1] = molecular target: human ERG potassium channel (hERG) (Homo sapiens (Human), UniProt Q12809); experiment: hERG tail current recording, Rapid ICE automated patch-clamp; format: cell-based; details: HEK293 cells stably transfected with hERG
Experimental: Measure of the Effect on hERG Channel by Tail Current Recording Using In Vitro Rapid ICE™
The potency of the compounds of the invention in inhibiting human ERG potassium channel (hERG) tail current is assessed in a recombinant HEK293 cell line stably transfected with hERG cDNA using Rapid ICE™ (Rapid Ion Channel Electrophysiology) assay. Rapid ICE™ is an automated patch-clamp assay utilizing the PatchXpress 7000A system (Molecular Devices Corporation) or the QPatch HTX system (Sophion Bioscience A/S).
Briefly cells are cultivated for 24 to 72 hours before recordings in minimum essential medium supplemented with 10% FBS, 1% non-essential amino acids, 1% sodium pyruvate, 2 mM L-glutamine. The day of the experiment cells are detached with TrypLE and prepared to be loaded on the instrument. For PatchXpress cells are finally resuspended in 150 μl of Extracellular Buffer whereas for QPatch cells are resuspended in 7 ml Serum-Free Media containing 25 mM Hepes and Soybean trypsin inhibitor and immediately placed in the cell storage tank of the machine. The composition of the Extracellular Buffer is (mM): NaCl 137; KCl 4; CaCl2 1.8; MgCl2 1.0; D-glucose 10; N 2 hydroxyethylpiperazine-N′-2-ethanesulfonic acid (HEPES) 10; pH 7.4 with 1 M NaOH. The composition of the pipette solution is (mM): KCl 130; MgCl2 1.0; Ethylene glycol-bis(β-aminoethyl ether)-N,N,N′,N′-tetraacetic acid (EGTA) 5; MgATP 5; HEPES 10; pH 7.2 with 1 M KOH. The voltage protocol includes the following steps: step from −80 mV to −50 mV for 200 ms, +20 mV for 4.8 s, step to −50 mV for 5 s then step to the holding potential of −80 mV. Compounds of the invention are dissolved in DMSO and diluted in Extracellular Buffer to achieve final test concentrations (0.1, 1 and 10 μM) in 0.1% DMSO. The voltage protocol is run and recorded continuously during the experiment. The vehicle, corresponding to 0.1% DMSO in Extracellular Buffer, is then applied for 3 min followed by the test substance in triplicate. The standard combined exposure time is 5 min. The average of tail current amplitude values recorded from 4 sequential voltage pulses is used to calculate for each cell the effect of the test substance by calculating the residual current (% control) compared with vehicle pre-treatment. Data are reported as % inhibition for each concentration tested and IC50 values are estimated using DataXpress or QPatch software. At least two cells are tested, more if results diverge.

[2] = molecular target: human serotonin transporter (SERT) (Homo sapiens (Human), UniProt P31645); experiment: Scintillation Proximity Assay (SPA) competition binding, human SERT; details: recombinant hSERT-CHO membranes, [3H]citalopram
Chain of human serotonin transporter (SERT) (P31645 whole entry): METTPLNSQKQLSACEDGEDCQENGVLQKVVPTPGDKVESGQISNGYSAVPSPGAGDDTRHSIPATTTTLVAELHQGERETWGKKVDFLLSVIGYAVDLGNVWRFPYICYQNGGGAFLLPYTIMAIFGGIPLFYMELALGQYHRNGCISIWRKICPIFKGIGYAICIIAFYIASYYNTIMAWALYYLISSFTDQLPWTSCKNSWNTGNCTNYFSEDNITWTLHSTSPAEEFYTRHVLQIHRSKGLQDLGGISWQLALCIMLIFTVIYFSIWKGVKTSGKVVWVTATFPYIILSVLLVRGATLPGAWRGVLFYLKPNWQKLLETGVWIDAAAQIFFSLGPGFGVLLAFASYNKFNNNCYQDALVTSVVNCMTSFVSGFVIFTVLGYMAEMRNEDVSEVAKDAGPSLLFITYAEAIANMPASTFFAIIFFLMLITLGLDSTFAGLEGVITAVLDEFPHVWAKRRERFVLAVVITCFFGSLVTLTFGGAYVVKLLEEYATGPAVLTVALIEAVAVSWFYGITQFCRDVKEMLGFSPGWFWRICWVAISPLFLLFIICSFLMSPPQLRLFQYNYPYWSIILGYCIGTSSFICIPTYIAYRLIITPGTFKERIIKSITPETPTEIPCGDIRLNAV

[3] = molecular target: human dopamine transporter (DAT) (Homo sapiens (Human), UniProt Q01959); experiment: Scintillation Proximity Assay (SPA) competition binding, human DAT; details: recombinant hDAT-CHO membranes, [3H]WIN-35,428
Chain of human dopamine transporter (DAT) (Q01959 whole entry): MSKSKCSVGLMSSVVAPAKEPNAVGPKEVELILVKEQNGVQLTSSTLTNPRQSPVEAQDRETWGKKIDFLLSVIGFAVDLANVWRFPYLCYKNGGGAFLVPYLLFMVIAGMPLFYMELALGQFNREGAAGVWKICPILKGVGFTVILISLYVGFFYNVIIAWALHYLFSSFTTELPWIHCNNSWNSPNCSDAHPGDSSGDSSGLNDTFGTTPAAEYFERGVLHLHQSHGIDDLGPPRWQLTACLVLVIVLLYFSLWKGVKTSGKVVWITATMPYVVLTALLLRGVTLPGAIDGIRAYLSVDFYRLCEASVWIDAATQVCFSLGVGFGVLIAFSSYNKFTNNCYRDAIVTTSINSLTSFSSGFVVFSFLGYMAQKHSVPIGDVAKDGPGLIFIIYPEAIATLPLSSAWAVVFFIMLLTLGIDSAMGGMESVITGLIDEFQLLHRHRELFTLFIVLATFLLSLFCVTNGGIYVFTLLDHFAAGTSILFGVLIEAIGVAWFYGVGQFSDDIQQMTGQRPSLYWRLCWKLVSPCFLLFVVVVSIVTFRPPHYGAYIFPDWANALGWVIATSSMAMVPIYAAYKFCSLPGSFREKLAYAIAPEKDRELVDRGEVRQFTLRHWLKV
How it was run: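 SPA binding on membranes from CHO cells stably expressing human DAT, with 5 nM [3H]WIN-35,428, WGA-PVT beads and 0.02% BSA in HEPES/NaCl/KCl buffer pH 7.4.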

[4] = molecular target: human norepinephrine transporter (NET) (Homo sapiens (Human), UniProt P23975); experiment: Scintillation Proximity Assay (SPA) competition binding, human NET; details: recombinant hNET-CHO membranes, [3H]nisoxetine
Chain of human norepinephrine transporter (NET) (P23975 whole entry): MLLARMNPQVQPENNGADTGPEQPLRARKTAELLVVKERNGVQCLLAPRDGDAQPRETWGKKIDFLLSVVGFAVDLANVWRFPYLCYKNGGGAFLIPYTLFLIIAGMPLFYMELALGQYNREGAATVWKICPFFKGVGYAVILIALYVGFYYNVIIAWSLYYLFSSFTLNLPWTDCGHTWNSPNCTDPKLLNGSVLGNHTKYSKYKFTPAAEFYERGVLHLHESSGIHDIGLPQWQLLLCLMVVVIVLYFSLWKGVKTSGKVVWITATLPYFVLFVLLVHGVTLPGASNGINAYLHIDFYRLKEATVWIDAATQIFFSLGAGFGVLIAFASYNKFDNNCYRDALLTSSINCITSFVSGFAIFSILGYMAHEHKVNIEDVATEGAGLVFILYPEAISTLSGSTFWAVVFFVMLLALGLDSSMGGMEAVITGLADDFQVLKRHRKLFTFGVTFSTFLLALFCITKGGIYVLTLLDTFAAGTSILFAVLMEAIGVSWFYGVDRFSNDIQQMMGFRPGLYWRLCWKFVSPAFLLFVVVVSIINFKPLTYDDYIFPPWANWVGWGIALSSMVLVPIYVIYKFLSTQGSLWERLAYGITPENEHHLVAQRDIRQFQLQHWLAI

Chain of human ERG potassium channel (hERG) (Q12809 whole entry): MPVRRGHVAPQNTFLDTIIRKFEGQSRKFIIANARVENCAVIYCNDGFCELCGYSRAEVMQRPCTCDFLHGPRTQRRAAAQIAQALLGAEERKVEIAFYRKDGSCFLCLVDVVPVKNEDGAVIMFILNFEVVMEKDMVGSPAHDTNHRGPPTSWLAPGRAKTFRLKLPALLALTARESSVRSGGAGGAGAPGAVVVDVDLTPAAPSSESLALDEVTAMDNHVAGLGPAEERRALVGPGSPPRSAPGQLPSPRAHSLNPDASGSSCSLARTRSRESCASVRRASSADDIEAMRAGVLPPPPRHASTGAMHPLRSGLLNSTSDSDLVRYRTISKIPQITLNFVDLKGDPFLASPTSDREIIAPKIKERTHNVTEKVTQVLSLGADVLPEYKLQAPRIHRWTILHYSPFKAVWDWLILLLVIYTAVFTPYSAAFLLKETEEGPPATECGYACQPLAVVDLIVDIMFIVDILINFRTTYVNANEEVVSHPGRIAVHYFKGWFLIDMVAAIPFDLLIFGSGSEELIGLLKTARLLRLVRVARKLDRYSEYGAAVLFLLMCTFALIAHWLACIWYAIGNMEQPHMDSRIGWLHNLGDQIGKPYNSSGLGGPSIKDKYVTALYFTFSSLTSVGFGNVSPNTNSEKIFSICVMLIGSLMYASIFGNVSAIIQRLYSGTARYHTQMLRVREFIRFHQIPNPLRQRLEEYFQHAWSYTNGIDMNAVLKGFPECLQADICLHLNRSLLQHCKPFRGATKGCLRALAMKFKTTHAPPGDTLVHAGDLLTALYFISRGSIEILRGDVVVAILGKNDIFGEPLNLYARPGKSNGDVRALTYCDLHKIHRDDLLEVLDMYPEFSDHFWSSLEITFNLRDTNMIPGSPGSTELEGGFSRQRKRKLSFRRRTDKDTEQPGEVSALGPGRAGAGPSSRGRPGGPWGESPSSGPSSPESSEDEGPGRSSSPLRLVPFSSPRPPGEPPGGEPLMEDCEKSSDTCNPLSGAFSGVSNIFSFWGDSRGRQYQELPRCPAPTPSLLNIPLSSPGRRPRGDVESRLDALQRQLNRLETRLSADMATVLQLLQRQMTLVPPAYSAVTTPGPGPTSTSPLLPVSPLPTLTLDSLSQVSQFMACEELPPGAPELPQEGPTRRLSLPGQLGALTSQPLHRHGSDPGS

| Structure (SMILES) | pIC50 hERG [1] | pIC50 SERT [2] | pIC50 DAT [3] | pIC50 NET [4] | IC50 [1] [µM] |
| --- | --- | --- | --- | --- | --- |
| Cl.FC(F)(F)c1cc(Oc2ccccc2)nc(N2CCC3(CC2)CNCCO3)n1 [Example 55, 9-[4-phenoxy-6-(trifluoromethyl)pyrimidin-2-yl]-1-oxa-4,9-diazaspiro[5.5]undecane hydrochloride] | 5.7 | 6.14 | 8.19 | 6.12 | – |
| Cl.N#Cc1cc(Oc2cccc(F)c2)nc(N2CCC3(CC2)CNCCO3)n1 [Example 62, 6-(3-fluorophenoxy)-2-{1-oxa-4,9-diazaspiro[5.5]undecan-9-yl}pyrimidine-4-carbonitrile hydrochloride] | 6.5 | 5.83 | 8.01 | 6.36 | – |
| Cc1cc(Oc2ccccc2)nc(N2CCC3(CC2)CNCCO3)n1.Cl [Example 43, 9-(4-methyl-6-phenoxypyrimidin-2-yl)-1-oxa-4,9-diazaspiro[5.5]undecane hydrochloride] | 5.7 | 4.42 | 8.01 | 6.11 | – |
| Cl.N#Cc1cccc(Oc2cc(C(F)(F)F)nc(N3CCC4(CC3)CNCCO4)n2)c1 [Example 59, 3-[(2-{1-oxa-4,9-diazaspiro[5.5]undecan-9-yl}-6-(trifluoromethyl)pyrimidin-4-yl)oxy]benzonitrile hydrochloride] | 7.0 | 5.15 | 8.01 | 5.67 | – |
| Cc1cc(Oc2cccc(C#N)c2)nc(N2CCC3(CC2)CNCCO3)n1.Cl [Example 46, 3-[(6-methyl-2-{1-oxa-4,9-diazaspiro[5.5]undecan-9-yl}pyrimidin-4-yl)oxy]benzonitrile hydrochloride] | 6.6 | 6.11 | 8.03 | 5.85 | – |
| Fc1cccc(Oc2cccc(N3CCC4(CC3)CNCCO4)c2F)c1 [Example 19, 9-[2-fluoro-3-(3-fluorophenoxy)phenyl]-1-oxa-4,9-diazaspiro[5.5]undecane] | 5.4 | 5.99 | 8.64 | 7.01 | – |
| Fc1cccc(Oc2cc(F)cc(N3CCC4(CCNC4)CC3)c2)c1 [Example 92, 8-[3-fluoro-5-(3-fluorophenoxy)phenyl]-2,8-diazaspiro[4.5]decane] | 6.2 | 7.37 | 8.84 | 7.33 | – |
| Fc1cccc(Oc2cc(F)c(F)cc2N2CCC3(CCNC3)CC2)c1 [Example 91, 8-[4,5-difluoro-2-(3-fluorophenoxy)phenyl]-2,8-diazaspiro[4.5]decane] | 5.9 | 7.29 | 8.01 | 6.26 | – |
| COc1cc(Oc2cccc(F)c2)nc(N2CCC3(CC2)CNCCO3)n1.Cl [Example 66, 9-[4-(3-fluorophenoxy)-6-methoxypyrimidin-2-yl]-1-oxa-4,9 diazaspiro[5.5]undecane hydrochloride] | 5.7 | 5.27 | 8.29 | 6.52 | – |
| Cl.Fc1ccccc1Oc1cc(C(F)(F)F)nc(N2CCC3(CC2)CNCCO3)n1 [Example 57, 9-[4-(2-fluorophenoxy)-6-(trifluoromethyl)pyrimidin-2-yl]-1-oxa-4,9-diazaspiro[5.5]undecane hydrochloride] | 5.7 | 6.18 | 7.89 | 5.94 | – |
| Fc1cccc(Oc2cc(F)cc(N3CCC4(CC3)CNCCO4)c2F)c1 [Example 21, 9-[2,5-difluoro-3-(3-fluorophenoxy)phenyl]-1-oxa-4,9-diazaspiro[5.5]undecane] | 5.4 | 6.48 | 9.11 | 7.49 | – |
| Cl.Fc1cccc(Oc2ccnc(N3CCC4(CC3)CNCCO4)n2)c1 [Example 42, 9-[4-(3-fluorophenoxy)pyrimidin-2-yl]-1-oxa-4,9-diazaspiro[5.5]undecane hydrochloride] | 6.4 | 4.69 | 7.33 | 5.64 | – |
| Fc1cccc(Oc2cc(F)c(F)cc2N2CCC3(CNCCO3)C2)c1 (centres unmarked) [Example 83, 2-[4,5-difluoro-2-(3-fluorophenoxy)phenyl]-6-oxa-2,9-diazaspiro[4.5]decane] | 6.2 | 6.40 | 7.24 | 6.76 | – |
| Fc1cccc(Oc2cc(C(F)(F)F)nc(N3CCC4(CNCCC45OCCO5)C3)n2)c1 (centres unmarked) [Example 87, 8-[4-(3-fluorophenoxy)-6-(trifluoromethyl)pyrimidin-2-yl]-1,4-dioxa-8,12-diazadispiro[4.0.4^6.4^5]tetradecane] | 6.0 | 5.43 | 8.67 | 6.82 | – |
| Cc1cc(Oc2cccc(C(F)(F)F)c2)nc(N2CCC3(CC2)CNCCO3)n1.Cl [Example 48, 9-{4-methyl-6-[3-(trifluoromethyl)phenoxy]pyrimidin-2-yl}-1-oxa-4,9-diazaspiro[5.5]undecane hydrochloride] | 5.6 | 5.58 | 6.50 | 5.48 | – |
| O=C1COC2(CCN(c3nc(Oc4cccc(F)c4)cc(C(F)(F)F)n3)CC2)CN1 [Example 68, 9-[4-(3-fluorophenoxy)-6-(trifluoromethyl)pyrimidin-2-yl]-1-oxa-4,9-diazaspiro[5.5]undecan-3-one] | – | 4.45 | 7.28 | 5.39 | > 10 |
| N#Cc1cc(Oc2ccccc2)cc(N2CCC3(CC2)CNCCO3)c1 [Example 25, 3-{1-oxa-4,9-diazaspiro[5.5]undecan-9-yl}-5-phenoxybenzonitrile] | 6.1 | 7.43 | 8.66 | 7.19 | – |
| Fc1cccc(Oc2cc(F)c(F)cc2N2CCC3(CCCNC3)CC2)c1 [Example 79, 9-[4,5-difluoro-2-(3-fluorophenoxy)phenyl]-2,9-diazaspiro[5.5]undecane] | 6.1 | 6.49 | 7.86 | 6.31 | – |
| Fc1cccc(Oc2cc(F)c(F)cc2N2CCC3(CC2)CNCCO3)c1 [Example 1, 9-[4,5-difluoro-2-(3-fluorophenoxy)phenyl]-1-oxa-4,9-diazaspiro[5.5]undecane] | 6.0 | 6.44 | 7.96 | 5.69 | – |
| Fc1cccc(Oc2cccc(N3CCC4(CC3)CNCCO4)c2)c1 [Example 7, 9-[3-(3-fluorophenoxy)phenyl]-1-oxa-4,9-diazaspiro[5.5]undecane] | 5.8 | 5.99 | 7.54 | 6.33 | – |

Source: patent publication US9908897B2, “Spirocyclic derivatives” (CHRONOS THERAPEUTICS LIMITED, priority 2014, dated 2018)
